The test system of this assay is N. fowleri strain Nf69 (ATCC 30215) trophozoites. The assay is described as follows: Determination of EC50 values against Naegleria fowleri (growth inhibition, CellTiter Glo, 48 h). To be noted: ATCC30215, N. fowleri Nf69 trophozoites, 48 h culture, 37° C., CellTiter Glo luminescence, read-out: EC50 uM against N. fowleri. Type of assay: cell-based. Summed up: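 Axenic Nf69 trophozoites in Nelson's complete medium with 10% FBS exposed to compound, initially 20–0.375 μM, for 48 h at 37 °C, 5% CO2. Viability read by CellTiter-Glo luminescence; % growth inhibition versus controls, triplicate averages fitted for EC50, with lower ranges used for very potent compounds.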
(In general: Cellular ATP, detected with luciferase, serves as a proxy for viable cell number.)
Take `COc1cccc2c(=O)n3c(nc12)[C@H]1CCCN(C)[C@@H]1CC3` (racemic) [trans-5u, (±)-(4aR,13bS)-12-methoxy-4-methyl-1,2,3,4,4a,5,6,13b-octahydro-8H-[1,6]naphthyridino[5,6-b]quinazolin-8-one]: the EC50 is more than 10 µM.

As for `Cn1c([C@@H]2CCCN(Cc3cccnc3)C2)nc2cc(Cl)c(Cl)cc2c1=O` [Compound R-14v, (R)-6,7-dichloro-3-methyl-2-(1-(pyridin-3-ylmethyl)piperidin-3-yl)quinazolin-4(3H)-one], the EC50 was more than 10 µM.

As for `CN1CCC[C@@H]2c3nc4cc(Cl)ccc4c(=O)n3CC[C@H]21` (racemic) [trans-5k, (±)-(4aR,13bS)-11-chloro-4-methyl-1,2,3,4,4a,5,6,13b-octahydro-8H-[1,6]naphthyridino[5,6-b]quinazolin-8-one], the EC50 fell in the range of 1 to 10 µM.

On to `CN1CCC[C@@H]2c3nc4cc(-c5ccccc5)c(Cl)cc4c(=O)n3CC[C@H]21` (racemic) [trans-9b, (±)-(4aR,13bS)-10-chloro-4-methyl-11-phenyl-1,2,3,4,4a,5,6,13b-octahydro-8H-[1,6]naphthyridino[5,6-b]quinazolin-8-one], for which the EC50 is 1 to 10 µM.

Regarding `CN1CCC[C@H]2c3nc4cc(Cl)ccc4c(=O)n3CC[C@H]21` (racemic) [cis-5k, (±)-(4aR,13bR)-11-chloro-4-methyl-1,2,3,4,4a,5,6,13b-octahydro-8H-[1,6]naphthyridino[5,6-b]quinazolin-8-one], the EC50 is more than 10 µM.

Take `CN1CCC[C@@H]2c3nc4cc(Cl)c(Cl)cc4c(=O)n3CC[C@H]21` (racemic) [trans-5q, (±)-(4aR,13bS)-10,11-dichloro-4-methyl-1,2,3,4,4a,5,6,13b-octahydro-8H-[1,6]naphthyridino[5,6-b]quinazolin-8-one]: the 50% effective concentration (EC50) was 0.1 to 1 µM.

As for `CN1CC[C@H]2c3nc4ccc(Cl)cc4c(=O)n3CC[C@H]21` (racemic) [cis-5hh, (±)-(3aR,12bR)-9-chloro-3-methyl-2,3,3a,4,5,12b-hexahydropyrrolo[3′,2′:3,4]pyrido[2,1-b]quinazolin-7(1H)-one], the EC50 was more than 10 µM.

With `O=c1c2cc(Cl)c(Cl)cc2nc([C@@H]2CCCN(CC3COC3)C2)n1CCN1CCOCC1` [Compound R-14m, (R)-6,7-dichloro-3-(2-morpholinoethyl)-2-(1-(oxetan-3-ylmethyl)piperidin-3-yl)quinazolin-4(3H)-one], the EC50 is more than 10 µM.

For the compound `CC(=O)CN1CCC[C@@H]2c3nc4cc(Cl)c(Cl)cc4c(=O)n3CC[C@H]21` (racemic) [trans-7cc, (±)-(4aR,13bS)-10,11-dichloro-4-(2-oxopropyl)-1,2,3,4,4a,5,6,13b-octahydro-8H-[1,6]naphthyridino[5,6-b]quinazolin-8-one], the EC50 lay within 0.0001 to 0.1 µM.

`CN1CCO[C@@H]2c3nc4ccc(C(F)(F)F)cc4c(=O)n3CC[C@H]21` (racemic) [trans-5x, (±)-(4aR,13bS)-4-methyl-10-(trifluoromethyl)-3,4,4a,5,6,13b-hexahydro-[1,4]oxazino[2′,3′:3,4]pyrido[2,1-b]quinazolin-8(2H)-one]: the EC50 was more than 10 µM.

As for `O=c1c2cc(Cl)c(Cl)cc2nc2n1CC[C@@H]1[C@@H]2CCCN1Cc1ccc(C(F)(F)F)cc1` (racemic) [Compound 7u, (±)-(4aR,13bS)-10,11-dichloro-4-(4-(trifluoromethyl)benzyl)-1,2,3,4,4a,5,6,13b-octahydro-8H-[1,6]naphthyridino[5,6-b]quinazolin-8-one], the EC50 was more than 10 µM.

Turning to `O=c1c2cc(Cl)c(Cl)cc2nc2n1CC[C@@H]1[C@@H]2CCCN1CCN1CCOCC1` (racemic) [trans-7y, (±)-(4aR,13bS)-10,11-dichloro-4-(2-morpholinoethyl)-1,2,3,4,4a,5,6,13b-octahydro-8H-[1,6]naphthyridino[5,6-b]quinazolin-8-one], the EC50 is 0.0001 to 0.1 µM.

For `Cn1c([C@@H]2CCCN(CC(C)(C)O)C2)nc2cc(Cl)c(Cl)cc2c1=O` [Compound R-14h, (R)-6,7-dichloro-2-(1-(2-hydroxy-2-methylpropyl)piperidin-3-yl)-3-methylquinazolin-4(3H)-one], the EC50 is more than 10 µM.

As to `CN1CCC[C@H]2c3nc4ccc(C#N)cc4c(=O)n3CC[C@H]21` (racemic) [cis-5i, (±)-(4aR,13bR)-4-methyl-8-oxo-2,3,4,4a,5,6,8,13b-octahydro-1H-[1,6]naphthyridino[5,6-b]quinazoline-10-carbonitrile], the EC50 was 1 to 10 µM.

As to `CC(C)NCCN1CCC[C@@H]2c3nc4cc(Cl)c(Cl)cc4c(=O)n3CC[C@H]21` (racemic) [trans-7aa, (±)-(4aR,13bS)-10,11-dichloro-4-(2-(isopropylamino)ethyl)-1,2,3,4,4a,5,6,13b-octahydro-8H-[1,6]naphthyridino[5,6-b]quinazolin-8-one], the concentration giving a half-maximal response (EC50) is 0.1 to 1 µM.

On to `COc1ccc2nc3n(c(=O)c2c1)CC[C@@H]1[C@H]3CCCN1C` (racemic) [cis-5g, (±)-(4aR,13bR)-10-methoxy-4-methyl-1,2,3,4,4a,5,6,13b-octahydro-8H-[1,6]naphthyridino[5,6-b]quinazolin-8-one], for which the EC50 is more than 10 µM.

Take `O=c1c2cc(Cl)c(Cl)cc2nc2n1CC[C@@H]1[C@@H]2CCCN1Cc1ccncc1` (racemic) [trans-7k, (±)-(4aR,13bS)-10,11-dichloro-4-(pyridin-4-ylmethyl)-1,2,3,4,4a,5,6,13b-octahydro-8H-[1,6]naphthyridino[5,6-b]quinazolin-8-one]: the EC50 is 0.1 to 1 µM.

For the compound `CN(C)CC(=O)N1CCC[C@@H]2c3nc4cc(Cl)c(Cl)cc4c(=O)n3CC[C@H]21` (racemic) [trans-7g, (±)-(4aR,13bS)-10,11-dichloro-4-(dimethylglycyl)-1,2,3,4,4a,5,6,13b-octahydro-8H-[1,6]naphthyridino[5,6-b]quinazolin-8-one], the EC50 was in the range of 0.1 to 1 µM.

Regarding `CN1CC[C@H]2c3nc4ccccc4c(=O)n3CC[C@H]21` (racemic) [cis-5cc, (±)-(3aR,12bR)-3-methyl-2,3,3a,4,5,12b-hexahydropyrrolo[3′,2′:3,4]pyrido[2,1-b]quinazolin-7(1H)-one], the EC50 is more than 10 µM.

For `COc1cc2nc3n(c(=O)c2cc1Cl)CC[C@@H]1[C@@H]3CCCN1CCN1CCOCC1` (racemic) [trans-7mm, (±)-(4aR,13bS)-10-chloro-11-methoxy-4-(2-morpholinoethyl)-1,2,3,4,4a,5,6,13b-octahydro-8H-[1,6]naphthyridino[5,6-b]quinazolin-8-one], the EC50 fell in the range of 0.1 to 1 µM.

In the case of `Cc1ccc(-c2ccc3nc4n(c(=O)c3c2)CC[C@@H]2[C@H]4CCCN2C)cn1` (racemic) [cis-9a], the EC50 is more than 10 µM.

As for `CN1CCC[C@H]2c3nc4ccc(F)cc4c(=O)n3CC[C@H]21` (racemic) [cis-5f, (±)-(4aR,13bR)-10-fluoro-4-methyl-1,2,3,4,4a,5,6,13b-octahydro-8H-[1,6]naphthyridino[5,6-b]quinazolin-8-one], the EC50 is more than 10 µM.

On to `Cc1ccc(-c2ccc3nc4n(c(=O)c3c2)CC[C@@H]2[C@@H]4CCCN2C)cn1` (racemic) [trans-9a, (±)-(4aR,13bS)-4-methyl-10-(6-methylpyridin-3-yl)-1,2,3,4,4a,5,6,13b-octahydro-8H-[1,6]naphthyridino[5,6-b]quinazolin-8-one], for which the EC50 was more than 10 µM.

A word on the EC50: it is the midpoint of the concentration-response curve.
